Targets include AURKB (Homo sapiens, UniProt Q96GD4); DAPK1 (Homo sapiens, UniProt P53355); FGFR2 (Homo sapiens, UniProt P21802); FLT3(ITD) (Homo sapiens, UniProt P36888, ITD); FLT3(ITD,D835V) (Homo sapiens, UniProt P36888, D835V/ITD); FLT3(K663Q) (Homo sapiens, UniProt P36888, K663Q); GRK1 (Homo sapiens, UniProt Q15835); KIT (Homo sapiens, UniProt P10721); KIT(A829P) (Homo sapiens, UniProt P10721, A829P); MELK (Homo sapiens, UniProt Q14680); MERTK (Homo sapiens, UniProt Q12866); PHKG1 (Homo sapiens, UniProt Q16816); PIK3CA(C420R) (Homo sapiens, UniProt P42336, C420R); PRKCE (Homo sapiens, UniProt Q02156); RET(V804M) (Homo sapiens, UniProt P07949, V804M); TAOK1 (Homo sapiens, UniProt Q7L7X3).

Common to all, as to experiment: biochemical
Design in all cases: DiscoverX KINOMEscan scanMAX competition binding panel, single concentration, percent of control; remaining binding: dose or concentration left out as unconfirmed
Holding throughout (settings): KINOMEscan binding, percent of control; read-out: Table S4_SCANMAX REPORT - related to Fig. 1 / Percent Control

The target in a further experiment is T1, JNK1 (Homo sapiens, UniProt P45983).
T1 construct: gene MAPK8

In experiment [1] the target is T2, RPS6KA5(Kin.Dom.1-N-terminal) (Homo sapiens, UniProt O75582).
T2 construct: Kin.Dom.1-N-terminal

Structures are written as SMILES.

Sequence of RET(V804M) (P07949 whole entry V804M): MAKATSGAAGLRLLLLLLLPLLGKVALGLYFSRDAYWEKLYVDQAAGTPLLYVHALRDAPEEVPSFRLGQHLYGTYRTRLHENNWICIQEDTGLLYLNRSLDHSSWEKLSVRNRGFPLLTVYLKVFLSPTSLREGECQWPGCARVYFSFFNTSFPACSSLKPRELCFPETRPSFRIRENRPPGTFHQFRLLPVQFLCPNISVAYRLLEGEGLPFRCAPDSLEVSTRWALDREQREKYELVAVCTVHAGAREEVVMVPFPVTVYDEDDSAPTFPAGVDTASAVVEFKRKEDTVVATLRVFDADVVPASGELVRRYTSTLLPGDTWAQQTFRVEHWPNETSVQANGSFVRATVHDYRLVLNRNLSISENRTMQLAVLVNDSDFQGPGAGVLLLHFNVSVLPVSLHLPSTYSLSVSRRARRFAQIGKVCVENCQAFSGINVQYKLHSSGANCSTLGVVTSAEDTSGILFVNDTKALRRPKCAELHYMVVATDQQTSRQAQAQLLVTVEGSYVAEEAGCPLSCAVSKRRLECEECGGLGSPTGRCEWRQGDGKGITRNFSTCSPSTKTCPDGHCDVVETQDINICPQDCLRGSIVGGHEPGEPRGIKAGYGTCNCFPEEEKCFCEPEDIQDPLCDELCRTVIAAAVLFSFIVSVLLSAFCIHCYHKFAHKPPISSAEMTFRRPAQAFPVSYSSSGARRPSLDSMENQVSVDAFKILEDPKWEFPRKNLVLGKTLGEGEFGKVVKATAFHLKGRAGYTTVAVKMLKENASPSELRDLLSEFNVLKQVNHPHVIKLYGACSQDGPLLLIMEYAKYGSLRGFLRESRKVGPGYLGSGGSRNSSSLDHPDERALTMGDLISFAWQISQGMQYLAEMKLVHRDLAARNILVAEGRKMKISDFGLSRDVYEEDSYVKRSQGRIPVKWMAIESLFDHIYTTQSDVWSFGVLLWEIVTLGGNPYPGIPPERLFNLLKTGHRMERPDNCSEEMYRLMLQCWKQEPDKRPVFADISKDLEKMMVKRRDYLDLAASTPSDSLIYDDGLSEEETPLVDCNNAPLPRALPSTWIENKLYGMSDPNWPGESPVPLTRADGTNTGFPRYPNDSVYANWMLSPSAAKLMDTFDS
Sequence of DAPK1 (P53355 whole entry): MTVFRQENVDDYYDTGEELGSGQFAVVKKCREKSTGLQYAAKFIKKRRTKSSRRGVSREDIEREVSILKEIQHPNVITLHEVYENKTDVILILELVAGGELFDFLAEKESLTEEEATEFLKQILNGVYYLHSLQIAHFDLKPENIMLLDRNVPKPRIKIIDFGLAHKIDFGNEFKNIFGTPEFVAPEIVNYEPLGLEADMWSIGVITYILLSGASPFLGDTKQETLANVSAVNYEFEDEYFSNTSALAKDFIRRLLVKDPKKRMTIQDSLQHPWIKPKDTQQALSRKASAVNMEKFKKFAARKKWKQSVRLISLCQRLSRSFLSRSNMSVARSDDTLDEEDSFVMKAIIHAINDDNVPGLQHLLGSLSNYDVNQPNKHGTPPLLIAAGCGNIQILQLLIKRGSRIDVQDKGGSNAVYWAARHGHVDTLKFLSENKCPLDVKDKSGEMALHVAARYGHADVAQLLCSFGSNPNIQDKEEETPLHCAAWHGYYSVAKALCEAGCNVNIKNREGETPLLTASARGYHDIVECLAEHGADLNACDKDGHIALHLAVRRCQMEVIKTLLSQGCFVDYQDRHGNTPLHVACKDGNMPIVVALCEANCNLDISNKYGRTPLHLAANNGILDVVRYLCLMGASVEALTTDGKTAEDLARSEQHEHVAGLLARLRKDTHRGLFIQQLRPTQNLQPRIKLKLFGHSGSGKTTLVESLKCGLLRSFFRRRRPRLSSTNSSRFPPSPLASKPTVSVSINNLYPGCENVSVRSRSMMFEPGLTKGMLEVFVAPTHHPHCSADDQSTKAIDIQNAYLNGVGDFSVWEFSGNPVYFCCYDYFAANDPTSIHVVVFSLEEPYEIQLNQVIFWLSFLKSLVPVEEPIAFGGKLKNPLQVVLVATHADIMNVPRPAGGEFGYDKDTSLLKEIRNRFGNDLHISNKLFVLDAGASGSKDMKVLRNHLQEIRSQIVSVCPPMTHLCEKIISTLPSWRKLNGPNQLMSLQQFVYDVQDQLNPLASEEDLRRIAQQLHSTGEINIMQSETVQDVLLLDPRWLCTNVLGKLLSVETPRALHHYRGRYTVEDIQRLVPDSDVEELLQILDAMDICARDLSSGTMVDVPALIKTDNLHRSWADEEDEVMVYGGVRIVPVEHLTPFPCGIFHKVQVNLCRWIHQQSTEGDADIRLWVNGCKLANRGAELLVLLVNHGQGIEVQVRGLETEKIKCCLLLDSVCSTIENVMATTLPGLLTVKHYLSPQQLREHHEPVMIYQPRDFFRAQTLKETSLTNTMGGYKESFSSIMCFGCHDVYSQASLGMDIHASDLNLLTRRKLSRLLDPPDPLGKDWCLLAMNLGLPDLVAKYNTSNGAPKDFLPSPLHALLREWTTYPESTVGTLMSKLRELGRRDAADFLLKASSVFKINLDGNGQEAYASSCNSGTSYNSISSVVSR
Sequence of PHKG1 (Q16816 whole entry): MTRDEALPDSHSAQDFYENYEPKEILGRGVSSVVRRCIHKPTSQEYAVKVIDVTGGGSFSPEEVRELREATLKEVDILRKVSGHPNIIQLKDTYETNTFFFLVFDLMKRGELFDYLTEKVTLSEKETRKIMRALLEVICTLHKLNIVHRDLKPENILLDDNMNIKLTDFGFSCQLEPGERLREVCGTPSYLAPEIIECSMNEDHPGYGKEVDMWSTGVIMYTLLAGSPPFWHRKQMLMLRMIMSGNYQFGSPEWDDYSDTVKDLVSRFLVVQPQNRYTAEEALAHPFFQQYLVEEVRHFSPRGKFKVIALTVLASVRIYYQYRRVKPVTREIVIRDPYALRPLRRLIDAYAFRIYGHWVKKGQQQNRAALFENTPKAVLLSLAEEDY
Sequence of KIT (P10721 whole entry): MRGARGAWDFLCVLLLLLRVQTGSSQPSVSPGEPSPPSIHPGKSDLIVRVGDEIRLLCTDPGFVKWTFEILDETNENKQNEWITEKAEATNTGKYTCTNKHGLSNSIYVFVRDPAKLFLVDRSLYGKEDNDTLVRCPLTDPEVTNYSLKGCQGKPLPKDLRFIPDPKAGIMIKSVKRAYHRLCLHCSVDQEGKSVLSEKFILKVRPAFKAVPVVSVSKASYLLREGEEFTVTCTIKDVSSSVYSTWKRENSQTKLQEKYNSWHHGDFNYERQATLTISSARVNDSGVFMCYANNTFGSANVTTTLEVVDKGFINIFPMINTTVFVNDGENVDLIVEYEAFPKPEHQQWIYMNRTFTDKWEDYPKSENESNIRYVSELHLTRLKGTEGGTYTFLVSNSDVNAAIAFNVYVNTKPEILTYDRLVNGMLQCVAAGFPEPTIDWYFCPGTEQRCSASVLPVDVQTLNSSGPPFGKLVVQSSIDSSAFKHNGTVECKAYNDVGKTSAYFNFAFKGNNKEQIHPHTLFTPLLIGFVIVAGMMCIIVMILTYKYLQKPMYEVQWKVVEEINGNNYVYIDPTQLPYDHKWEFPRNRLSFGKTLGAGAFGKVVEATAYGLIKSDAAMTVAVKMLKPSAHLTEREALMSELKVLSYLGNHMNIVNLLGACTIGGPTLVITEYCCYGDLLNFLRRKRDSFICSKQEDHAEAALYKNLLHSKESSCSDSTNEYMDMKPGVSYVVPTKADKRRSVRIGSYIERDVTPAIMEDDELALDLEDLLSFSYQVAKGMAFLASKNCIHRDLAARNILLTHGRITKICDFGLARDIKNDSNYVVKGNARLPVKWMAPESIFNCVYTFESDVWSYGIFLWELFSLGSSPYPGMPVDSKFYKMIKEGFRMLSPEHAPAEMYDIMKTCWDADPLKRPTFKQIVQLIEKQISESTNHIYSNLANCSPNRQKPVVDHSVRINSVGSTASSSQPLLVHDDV
Sequence of MELK (Q14680 whole entry): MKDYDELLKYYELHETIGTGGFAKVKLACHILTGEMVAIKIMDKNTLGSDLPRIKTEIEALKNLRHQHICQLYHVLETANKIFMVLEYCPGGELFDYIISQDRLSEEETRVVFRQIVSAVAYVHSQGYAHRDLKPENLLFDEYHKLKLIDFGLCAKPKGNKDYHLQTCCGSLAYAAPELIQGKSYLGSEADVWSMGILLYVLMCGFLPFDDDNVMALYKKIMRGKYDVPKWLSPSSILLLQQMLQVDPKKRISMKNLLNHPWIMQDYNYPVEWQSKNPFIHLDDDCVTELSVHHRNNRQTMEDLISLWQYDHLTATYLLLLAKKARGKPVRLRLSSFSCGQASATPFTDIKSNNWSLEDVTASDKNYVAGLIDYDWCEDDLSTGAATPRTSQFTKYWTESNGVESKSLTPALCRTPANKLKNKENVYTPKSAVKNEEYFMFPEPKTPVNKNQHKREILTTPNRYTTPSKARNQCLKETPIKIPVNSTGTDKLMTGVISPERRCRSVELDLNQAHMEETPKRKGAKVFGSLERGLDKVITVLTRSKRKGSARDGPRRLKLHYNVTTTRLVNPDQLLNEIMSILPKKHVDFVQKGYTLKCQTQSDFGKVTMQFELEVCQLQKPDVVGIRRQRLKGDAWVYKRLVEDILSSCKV
Sequence of KIT(A829P) (P10721 whole entry A829P): as the sequence (P10721 whole entry) above, with A829P counted along it
Sequence of AURKB (Q96GD4 whole entry): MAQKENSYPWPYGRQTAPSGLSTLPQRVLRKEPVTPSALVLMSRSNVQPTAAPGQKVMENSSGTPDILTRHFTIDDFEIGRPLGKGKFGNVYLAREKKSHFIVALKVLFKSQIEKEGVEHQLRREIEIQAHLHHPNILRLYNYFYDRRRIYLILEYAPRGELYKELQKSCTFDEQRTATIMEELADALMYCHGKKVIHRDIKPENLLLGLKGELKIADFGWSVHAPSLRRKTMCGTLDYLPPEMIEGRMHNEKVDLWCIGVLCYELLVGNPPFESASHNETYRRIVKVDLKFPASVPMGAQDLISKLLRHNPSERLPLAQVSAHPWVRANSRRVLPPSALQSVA

Regarding `c1ccc2c(c1)Sc1ccccc1N2CCN1CCOCC1` [J54], the remaining binding on AURKB came to 100%; on DAPK1, 99%; on FGFR2, 100%; on FLT3(ITD) it was 68%; on FLT3(ITD,D835V), 57%; on FLT3(K663Q), 94%. Besides, the remaining binding on GRK1 turned out to be 100%; on JNK1, 82%; on KIT, 100%; at KIT(A829P), 94%; at MELK, 84%; on MERTK, 100%. Further, the remaining binding at PHKG1 amounted to 100%; at PIK3CA(C420R) it was 88%; on PRKCE it was 100%; on RET(V804M), 100%; in [1] it was 100%; on TAOK1, 100%.

The record behind these values is paper PMC7486443, “Generation of Phenothiazine with Potent Anti-TLK1 Activity for Prostate Cancer Therapy” (iScience, 2020).
